Assay [1] addresses human recombinant Aurora B (Homo sapiens (Human), UniProt Q96GD4). Description: Aurora B Kinase Biochemical Assay (ADP-Glo). The conditions noted are these: ratio of Aurora B IC50 to PLK4 IC50 (selectivity). In outline: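 Recombinant human Aurora B (20 nM in pH 7.5 HEPES buffer with MgCl2, EGTA, DTT, Brij-35, BSA) preincubated with compound 15 min at RT. ADP formed quantified by ADP-Glo luminescence after ATP depletion (40 min) and detection (30 min). IC50 from four-parameter non-linear regression.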
(ADP-Glo first removes unused ATP, then detects ADP through luciferase.)

For assay [2], the target named is human recombinant Aurora A (Homo sapiens (Human), UniProt O14965). Description: Aurora A Kinase Biochemical Assay (ADP-Glo). The note with it: ratio of Aurora A IC50 to PLK4 IC50 (selectivity).
Another assay deals with human recombinant PLK4 (Homo sapiens (Human), UniProt O00444). Description: PLK4 Biochemical Assay (ADP-Glo). The conditions noted are these: 0.5 nM PLK4, 8.0 µM ATP, 4.7 µM MBP, 6 hours at RT. In outline: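 Recombinant human PLK4 (added at 1.0 nM) was preincubated 15 min at RT with compound in 50 mM HEPES pH 7.5, 10 mM MgCl2, 1 mM EGTA, 1 mM DTT, 0.01% Brij-35, 0.01% BSA. ADP formed was detected by ADP-Glo luminescence (40 min ATP depletion, 30 min detection). IC50 came from a four-parameter fit.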

The next assay relates to CHP-134 cells. Nature of the assay: CHP134 CellTiter-Glo (CTG) Assay. The format is cell-based. The note with it: Homo sapiens, CHP-134, 120 h, 5 days, viable cells by CellTiter-Glo. The protocol: Cells were seeded (200 cells/well) in 384-well plates for 16 hours. On day two, nine serial 1:3 compound dilutions were made in DMSO in a 96-well plate. The compounds were then further diluted into growth media using a BRAVO robot (Agilent, Santa Clara, CA). The diluted compounds were then added to quadruplicate wells in the 384-well cell plate and incubated at 37° C. and 5% CO2. After 5 days, relative numbers of viable cells were measured by luminescence using CellTiter-Glo® (Promega) according to the manufacturer’s instructions and read on a SPARK Multimode Microplate Reader (Tecan, Mannedorf Switzerland). The IC50 calculations for the values reported in Table 2 were carried out using Prism 6.0 software (GraphPad, San Diego).
(ATP-based viability assays read luminescence as a measure of living cells.)

SMILES strings stand for the structures. pIC50: −log10 of the molar value.

Chain of human recombinant Aurora B (Q96GD4 whole entry): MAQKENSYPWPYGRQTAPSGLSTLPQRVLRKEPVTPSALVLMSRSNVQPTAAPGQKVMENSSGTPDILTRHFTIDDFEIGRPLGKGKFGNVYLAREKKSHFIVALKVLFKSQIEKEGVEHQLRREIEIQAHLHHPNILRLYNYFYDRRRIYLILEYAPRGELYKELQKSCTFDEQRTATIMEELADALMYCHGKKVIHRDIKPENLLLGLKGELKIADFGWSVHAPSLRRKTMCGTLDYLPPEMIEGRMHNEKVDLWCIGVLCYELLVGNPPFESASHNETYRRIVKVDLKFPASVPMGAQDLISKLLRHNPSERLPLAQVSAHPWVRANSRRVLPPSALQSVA
Chain of human recombinant Aurora A (O14965 whole entry): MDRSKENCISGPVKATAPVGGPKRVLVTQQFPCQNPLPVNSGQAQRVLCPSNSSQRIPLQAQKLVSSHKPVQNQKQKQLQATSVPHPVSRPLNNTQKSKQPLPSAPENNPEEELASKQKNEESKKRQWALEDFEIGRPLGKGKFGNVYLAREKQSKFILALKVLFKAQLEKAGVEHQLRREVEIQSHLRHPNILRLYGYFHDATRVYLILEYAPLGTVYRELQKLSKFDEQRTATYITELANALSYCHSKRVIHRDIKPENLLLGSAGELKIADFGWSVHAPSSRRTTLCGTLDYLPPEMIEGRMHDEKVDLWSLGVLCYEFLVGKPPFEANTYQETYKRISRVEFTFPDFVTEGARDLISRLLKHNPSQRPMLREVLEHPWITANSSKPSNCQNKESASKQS
Chain of human recombinant PLK4 (O00444 whole entry): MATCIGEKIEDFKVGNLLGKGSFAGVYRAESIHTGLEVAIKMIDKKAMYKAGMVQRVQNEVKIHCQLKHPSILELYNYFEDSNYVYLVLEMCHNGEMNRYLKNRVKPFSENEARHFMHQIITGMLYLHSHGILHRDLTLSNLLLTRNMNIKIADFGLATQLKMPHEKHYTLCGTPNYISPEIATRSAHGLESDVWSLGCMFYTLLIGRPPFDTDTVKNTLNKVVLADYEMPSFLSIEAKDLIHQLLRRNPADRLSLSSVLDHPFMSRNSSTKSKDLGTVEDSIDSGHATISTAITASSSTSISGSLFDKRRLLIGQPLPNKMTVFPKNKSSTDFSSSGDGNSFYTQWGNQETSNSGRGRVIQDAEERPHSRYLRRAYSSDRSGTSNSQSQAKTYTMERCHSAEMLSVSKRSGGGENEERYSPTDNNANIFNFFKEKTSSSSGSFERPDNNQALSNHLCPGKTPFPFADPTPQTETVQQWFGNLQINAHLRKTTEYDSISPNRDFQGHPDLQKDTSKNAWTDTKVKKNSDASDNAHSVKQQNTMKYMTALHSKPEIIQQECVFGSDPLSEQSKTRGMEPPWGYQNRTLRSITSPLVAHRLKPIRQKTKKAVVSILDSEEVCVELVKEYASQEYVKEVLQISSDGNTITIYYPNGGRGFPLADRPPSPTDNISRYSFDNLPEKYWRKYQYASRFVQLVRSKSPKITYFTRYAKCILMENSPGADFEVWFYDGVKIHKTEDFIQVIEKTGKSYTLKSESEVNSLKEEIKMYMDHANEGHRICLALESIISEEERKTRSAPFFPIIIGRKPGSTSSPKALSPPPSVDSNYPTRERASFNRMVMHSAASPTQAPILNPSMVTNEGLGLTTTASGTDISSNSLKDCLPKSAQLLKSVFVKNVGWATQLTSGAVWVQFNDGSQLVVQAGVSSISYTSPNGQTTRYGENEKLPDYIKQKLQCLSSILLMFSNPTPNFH

The pIC50 is the negative decadic logarithm of the IC50, by convention in mol/L. As to `COc1ccc2c(c1)[C@]1(C[C@H]1c1ccc3c(Nc4nc(C5CC5)nc(N5CCS(=O)(=O)CC5)c4OC)n[nH]c3c1)C(=O)N2` [Example 69, 4-[2-cyclopropyl-5-methoxy-6-({6-[(1R,2S)-5′-methoxy-2′-oxo-1’,2′-dihydrospiro[cyclopropane-1,3′-indol]-2-yl]-1H-indazol-3-yl}amino)pyrimidin-4-yl]-1λ6-thiomorpholine-1,1-dione], in assay [1], the “[Aurora B IC50 (nM)]/[PLK4 IC50 (nM)]” value turned out to be 480.7112. In addition, in assay [2], the “[Aurora A IC50 (nM)]/[PLK4 IC50 (nM)]” value was 1785.978. Also, the negative logarithm of the IC50 (pIC50) on human recombinant PLK4 is 8.53; in the assay on CHP-134 cells, 6.16.

For `COc1ccc2c(c1)[C@]1(C[C@H]1c1ccc3c(Nc4nc(C5CC5)nc(N5CCS(=O)(=O)CC5)c4Cl)n[nH]c3c1)C(=O)N2` [Example 70, 4-[5-chloro-2-cyclopropyl-6-({6-[(1R,2S)-5′-methoxy-2′-oxo-1′,2′-dihydrospiro[cyclopropan-1,3′-indol]-2-yl]-1H-indazol-3-yl}amino)pyrimidin-4-y1]-1λ6-thiomorpholine-1,1-dione], in assay [1], the “[Aurora B IC50 (nM)]/[PLK4 IC50 (nM)]” value came out at 512.7157. In assay [2], the “[Aurora A IC50 (nM)]/[PLK4 IC50 (nM)]” value came out at 1376.93. The pIC50 was 8.96 at human recombinant PLK4 and 7.10 in the assay with CHP-134 cells.

Turning to `COc1ccc2c(c1)[C@]1(C[C@H]1c1ccc3c(Nc4nc(C)cnc4OC)n[nH]c3c1)C(=O)N2` [Example 71, (1R,2S)-5′-methoxy-2-{3-[(3-methoxy-6-methylpyrazin-2-yl)amino]-1H-indazol-6-yl}spiro[cyclopropane-1,3′-indol]-2′(1′H)-one], the “[Aurora B IC50 (nM)]/[PLK4 IC50 (nM)]” value in assay [1] is listed as 38.67. Moreover, the “[Aurora A IC50 (nM)]/[PLK4 IC50 (nM)]” value in assay [2] was determined as 420.9667. Also, the pIC50 on human recombinant PLK4 is 8.51; with CHP-134 cells, 6.00.

Regarding `COc1ccc2c(c1)[C@]1(C[C@H]1c1ccc3c(Nc4nc(C)nc(N5CC(O)C5)c4Cl)n[nH]c3c1)C(=O)N2` [Example 72, (1R,2S)-2-(3-{[5-chloro-6-(3-hydroxyazetidin-1-yl)-2-methylpyrimidin-4-yl]amino)-1H-indazol-6-yl)-5′-methoxyspiro[cyclopropane-1,3′-indol]-2′(1′H)-one], the “[Aurora B IC50 (nM)]/[PLK4 IC50 (nM)]” value in assay [1] was 405.2156. Moreover, in assay [2], the “[Aurora A IC50 (nM)]/[PLK4 IC50 (nM)]” value stood at 2006.018. Also, the pIC50 at human recombinant PLK4 is 9.00; in the assay with CHP-134 cells it was 7.37.

As to `COc1ccc2c(c1)[C@]1(C[C@H]1c1ccc3c(Nc4nc(C)nc(N5CC(O)C5)c4OC)n[nH]c3c1)C(=O)N2` [Example 73, (1R,2S)-2-(3-{[6-(3-hydroxyazetidin-l-yl)-5-methoxy-2-methylpyrimidin-4-yl]amino}-1H-indazol-6-yl)-5′-methoxyspiro[cyclopropane-1,3′-indol]-2′(1′H)-one], the “[Aurora B IC50 (nM)]/[PLK4 IC50 (nM)]” value in assay [1] is listed as 346.7708. In addition, the “[Aurora A IC50 (nM)]/[PLK4 IC50 (nM)]” value in assay [2] is 3290.277. The pIC50 is 8.15 on human recombinant PLK4 and 5.00 with CHP-134 cells.

`COc1ccc2c(c1)[C@]1(C[C@H]1c1ccc3c(Nc4nc(C5CC5)nc(N5CC(O)C5)c4Cl)n[nH]c3c1)C(=O)N2` [Example 76, (1R,2S)-2-(3-{[5-chloro-2-cyclopropyl-6-(3-hydroxyazetidin-1-yl)pyrimidin-4-yl]amino)-1H-indazol-6-yl)-5′-methoxyspiro[cyclopropane-1,3′-indol]-2′(1′H)-one]: in assay [1], the “[Aurora B IC50 (nM)]/[PLK4 IC50 (nM)]” value was 535.4839. The “[Aurora A IC50 (nM)]/[PLK4 IC50 (nM)]” value in assay [2] turned out to be 3304.147. Also, the pIC50 on human recombinant PLK4 is 9.36; in the assay on CHP-134 cells, 7.03.

For `COc1ccc2c(c1)[C@]1(C[C@H]1c1ccc3c(Nc4nc(C5CC5)nc(N5C[C@@H](C)O[C@@H](C)C5)c4OC)n[nH]c3c1)C(=O)N2` [Example 77, (1R,2S)-2-[3-({2-cyclopropyl-6-[(2R,6S)-2,6-dimethylmorpholin-4-yl]-5-methoxypyrimidin-4-yl}amino)-1H-indazol-6-yl]-5′-methoxyspiro[cydopropane-1,3′-indol]-2′(1′H)-one], the “[Aurora B IC50 (nM)]/[PLK4 IC50 (nM)]” value in assay [1] was 1577.689. In assay [2], the “[Aurora A IC50 (nM)]/[PLK4 IC50 (nM)]” value is 6738.759. For the same molecule, the negative-log IC50 (pIC50) on human recombinant PLK4 was 8.76; in the assay on CHP-134 cells, 6.14.

With `COc1ccc2c(c1)[C@]1(C[C@H]1c1ccc3c(Nc4nc(C(C)C)nc(N5CCS(=O)(=O)CC5)c4Cl)n[nH]c3c1)C(=O)N2` [Example 78, (1R,2S)-2-(3-((5-chloro-6-(1,1-dioxidothiomorpholino)-2-isopropylpyrimidin4-yl)amino)-1H-indazol-6-yl)-5′-methoxyspiro[cyclopropane-1,3′-indolin]-2′-one], the “[Aurora B IC50 (nM)]/[PLK4 IC50 (nM)]” value in assay [1] is 1778.857. In addition, in assay [2], the “[Aurora A IC50 (nM)]/[PLK4 IC50 (nM)]” value was found to be 5660. Besides, the pIC50 is 9.46 on human recombinant PLK4 and 7.21 with CHP-134 cells.

On to `COc1ccc2c(c1)[C@]1(C[C@H]1c1ccc3c(Nc4nc(C5CC5)cnc4OC)n[nH]c3c1)C(=O)N2.O=C(O)C(F)(F)F` [Example 80, (1R,2S)-2-{3-[(6-cyclopropyl-3-methorypyrazin-2-yl)amino]-1H-indazol-yl}-5′-metboxyspiro[cyclopropane-1,3′-indol]-2′(1′H)-one], for which the “[Aurora B IC50 (nM)]/[PLK4 IC50 (nM)]” value in assay [1] came to 54.12. In addition, the “[Aurora A IC50 (nM)]/[PLK4 IC50 (nM)]” value in assay [2] was found to be 346.5116. Moreover, the results for the pIC50 on human recombinant PLK4 and in the assay on CHP-134 cells were 8.63 and 6.53, respectively.

With `COc1ccc2c(c1)[C@]1(C[C@H]1c1ccc3c(Nc4nc(C5CC5)nc(N5CC(O)C5)c4OC)n[nH]c3c1)C(=O)N2.O=C(O)C(F)(F)F` [Example 81, (1R,2S)-2-(3-{[2-cyclopropyl-6-(3-hydroxyazetidin-1-yl)-5-methoxypyrimidin-4-yl]amino}-1H-indazol-6-yl)-5′-methoxyspiro[cyclopropane-1,3′-indol]-2′(1′H)-one], the “[Aurora B IC50 (nM)]/[PLK4 IC50 (nM)]” value in assay [1] is reported as 220.4239. The “[Aurora A IC50 (nM)]/[PLK4 IC50 (nM)]” value in assay [2] is given as 1478.393. In addition, the pIC50 at human recombinant PLK4 is 8.44; in the assay on CHP-134 cells, 6.02.

Consider `COc1ccc2c(c1)[C@]1(C[C@H]1c1ccc3c(Nc4nc(C(C)C)cnc4OC)n[nH]c3c1)C(=O)N2` [Example 83, (1R,2S)-5′-methoxy-2-(3-{[3-methoxy-6-(propan-2-yl)pyrazin-2-yl]amino}-1H-indazol-6-yl)spiro[cyclopropane-1,3′-indol]-2′(1′H)-one], for which the “[Aurora B IC50 (nM)]/[PLK4 IC50 (nM)]” value in assay [1] is on record as 333.3333. For the same molecule, the “[Aurora A IC50 (nM)]/[PLK4 IC50 (nM)]” value in assay [2] came out at 908.4004. Also, the pIC50 at human recombinant PLK4 is 8.65; in the assay on CHP-134 cells, 6.56.

In the case of `COc1ccc2c(c1)[C@]1(C[C@H]1c1ccc3c(Nc4nc(C(C)C)nc(N5CCS(=O)(=O)CC5)c4OC)n[nH]c3c1)C(=O)N2` [Example 84, (1R,2S)-2-(3-((6-(1,1-dioxidothiomorpholino)-2-isopropyl-5-methoxypyrimidin-4-yl)amino)-1H-indazol-6-yl)-5′-methoxyspiro[cyclopropane-1,3′-indolin]-2′-one], in assay [1], the “[Aurora B IC50 (nM)]/[PLK4 IC50 (nM)]” value was 3151.017. Besides, the “[Aurora A IC50 (nM)]/[PLK4 IC50 (nM)]” value in assay [2] was 39123.63. For the same molecule, the values for the pIC50 at human recombinant PLK4 and with CHP-134 cells were 8.89 and 6.40, respectively.

On to `COc1ccc2c(c1)[C@]1(C[C@H]1c1ccc3c(Nc4nc(C(C)C)nc(N5CCOCC5)c4OC)n[nH]c3c1)C(=O)N2` [Example 85, (1R,2S)-5′-methoxy-2-(3-{[5-methoxy-6-(morpholin-4-yl)-2-(propan-2-yl)pyrimidin-4-yl]amino}-1H-indazol-6-yl)spiro[cyclopropane-1,3′-indol]-2′(1′H)-one], for which, in assay [1], the “[Aurora B IC50 (nM)]/[PLK4 IC50 (nM)]” value came out at 3067.539. In assay [2], the “[Aurora A IC50 (nM)]/[PLK4 IC50 (nM)]” value came to 5554.974. The negative-log IC50 (pIC50) at human recombinant PLK4 is 8.72; in the assay with CHP-134 cells, 6.97.

Consider `COc1ccc2c(c1)[C@]1(C[C@H]1c1ccc3c(Nc4cc(C)ncc4OC)n[nH]c3c1)C(=O)N2` [Example 86, (1R,2S)-5′-methoxy-2-{3-[(5-methoxy-2-methylpyridin-4-yl)amino]-1H-indazol-6-yl}spiro[cyclopropane-1,3′-indol]-2′(1′H)-one], for which the “[Aurora B IC50 (nM)]/[PLK4 IC50 (nM)]” value in assay [1] was found to be 669.3396. In addition, the “[Aurora A IC50 (nM)]/[PLK4 IC50 (nM)]” value in assay [2] is recorded as 1414.623. The pIC50 on human recombinant PLK4 was 7.67; in the assay with CHP-134 cells it was 6.34.

Turning to `COc1ccc2c(c1)[C@]1(C[C@H]1c1ccc3c(Nc4nc(C)ncc4OC)n[nH]c3c1)C(=O)N2` [Example 87, (1R,2S)-5′-methozy-2-{3-[(5-methoxy-2-methylpyrimidin-4-yl)amino]-1H-indazol-6-yl}spiro[cyclopropane-1,3′-indol]-2′(1′H)-one], the “[Aurora B IC50 (nM)]/[PLK4 IC50 (nM)]” value in assay [1] was found to be 133.9241. Further, the “[Aurora A IC50 (nM)]/[PLK4 IC50 (nM)]” value in assay [2] is 973.4177. Further, the figures for the pIC50 on human recombinant PLK4 and in the assay on CHP-134 cells were 8.80 and 6.63, respectively.

The values above are taken from patent US20230365537A1, “POLO LIKE KINASE 4 INHIBITORS” (ORIC Pharmaceuticals, Inc., priority 2021, published 2023).
